In patent US12311033B2, “Lipid nanoparticle formulations and compositions” (CAPSTAN THERAPEUTICS, INC., priority 2023, dated 2025):

Tests used:
[1] = Time course of ionizable cationic lipid (LC-MS) and mRNA (digital PCR) in plasma, spleen, liver; assay type: in vivo; conditions: mice; for plasma levels of lipid at 7 days: CD8-targeted tLNP F9 (CICL1) or BF1 (ALC-0315)
Procedure: To obtain more detailed data a similar experiment was conducted in mice where it was possible to obtain a time course of disappearance of the ionizable cationic lipid and the encapsulated mRNA as well. Mice were intravenously administered 2 mg/kg tLNP of composition BF1 (comprising ALC-0315) or F9 (comprising CICL1) targeted to mouse CD8 and encapsulating an anti-human CD19 CAR, and monitored through 7 days. At each timepoint, 3 mice were sacrificed, and liver, spleen, and plasma were processed for LC-MS-based detection of lipid concentration and digital PCR detection of the mRNA. In plasma, mRNA level was normalized to a known amount of mRNA spiked in a control. In spleen and liver mRNA level was normalized to mRNA for the housekeeping gene GAPDH.

[2] = Ionizable cationic lipid in plasma, liver and spleen 24 hours after tLNP, LC/MS/MS; assay type: in vivo, cynomolgus macaques
Procedure: Samples were taken from cynomolgus macaques that had been intravenously administered either BF1 or F5 tLNPs (two each) at a dosage of 3 mg mRNA/kg in the preceding example. The tLNPs were conjugated to anti-CD5 mentioned in Example 2 as the targeting moiety. 24 hours after administration the animals were sacrificed and plasma, liver, and spleen tissue collected from two animals in each group and assessed by mass spectrometry for presence of these ionizable cationic lipids in order to assess biodegradability and biodistribution of these ionizable cationic lipids.
Briefly, plasma was stabilized for mass spectrometry by addition of 10 μL of formic acid per mL of K2EDTA plasma. Spleen and liver tissue were homogenized in 19 parts of homogenization buffer (50:40:10 0.1% formic acid in 1:1 methanol: acetone/10 mM ammonium formate with 0.2% formic acid/dimethylformamide (DMF)) to 1 part tissue (v/w) using a Geno/Grinder® (SPEX® SamplePrep) set to two minutes at 1500 rpms.
Calibration curves and quality control samples were prepared by spiking control matrix (plasma or homogenate) with CICL1 or ALC-0315 in DMF. The extraction was performed on wet ice by adding 300 μL of crashing solvent (0.1% formic acid in 1:1 methanol: acetonitrile) to 25 μL of sample to which 50 μL of internal standard was added (1:1 isopropyl alcohol: water). The extracts were mixed for four minutes at 1500 rpms and then centrifuged at 3000×g for ten minutes. 200 μL of supernatant was transferred to a clean 96 well plate for LC/MS/MS analysis.
Chromatography was performed on a Waters XBridge BEH C8 column (130 Å, 2.5 μm, 2.1×30 mm) using the following gradient. Mobile phase A (10 mM ammonium format in water with 0.2% formic acid) was held at 20% for 0.3 minutes before being reduced to 5% over 1.2 minutes. This condition was held for one minute before being returned to 80% B (0.1% formic acid in 1:1 methanol: acetonitrile) in 0.1 minutes. The column was then held at 80% B for 1.4 minutes. LC flow rate was held at 0.5 mL/min and the autosampler held at 2-8° C. The mass spectrum was obtained with a triple quadrupole apparatus using atmospheric pressure ionization (Sciex).
Quantitation was performed using a 1/X2 quadratic regression using the peak area for transition 1013.6→968.4 (CICL1) or 766.6→748.4 (ALC-0315) over peak area of transition 1040.6→995.4 of the internal standard.

[3] = biological target: signal regulatory protein a (SIRPα) (Homo sapiens, UniProt P78324); conditions: reported in Rodriguez et al., 2013; cited from earlier work
[4] = 24 hours after BF1 tLNP, 3 mg mRNA/kg

signal regulatory protein a (SIRPα), sequence (P78324 31-504): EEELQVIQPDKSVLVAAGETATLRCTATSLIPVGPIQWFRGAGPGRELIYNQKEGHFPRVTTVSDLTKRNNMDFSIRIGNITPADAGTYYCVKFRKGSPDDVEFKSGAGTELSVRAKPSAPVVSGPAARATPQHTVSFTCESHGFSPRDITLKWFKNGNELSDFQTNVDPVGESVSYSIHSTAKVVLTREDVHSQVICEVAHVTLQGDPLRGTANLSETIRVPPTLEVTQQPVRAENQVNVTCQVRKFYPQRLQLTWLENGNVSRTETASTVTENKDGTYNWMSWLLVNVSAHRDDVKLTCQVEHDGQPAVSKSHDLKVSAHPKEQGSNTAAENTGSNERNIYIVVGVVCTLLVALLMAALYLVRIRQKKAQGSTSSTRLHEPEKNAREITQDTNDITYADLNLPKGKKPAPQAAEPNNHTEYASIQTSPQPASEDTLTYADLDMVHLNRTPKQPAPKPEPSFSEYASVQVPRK

Compound | plasma levels of lipid at 7 days ([1]; 2 mg/kg i.v.) | lipid levels in spleen and liver ([1]; 2 mg/kg i.v., through 7 days) | concentration in liver, fold greater (reference not given) [2, 4] | concentration in spleen, fold greater (reference not given) [2, 4] [fold] | concentration in blood, fold greater than CICL1 ([2]; 24 hours after BF1 versus F5 tLNP, 3 mg mRNA/kg) | time after administration by which lipid levels were falling in the liver ([1]; 2 mg/kg F9 tLNP) [h] | time after administration by which lipid levels were falling in the spleen ([1]; 2 mg/kg F9 tLNP) [h] | concentrations in blood, liver, and spleen relative to each other ([2]; 24 hours after F5 tLNP, 3 mg mRNA/kg) [fold] | amount of lipid present in blood, liver, and spleen ([2]; 24 hours after F5 tLNP, 3 mg mRNA/kg i.v.) | liver concentration, fold less than for ALC-0315 ([2]; 24 hours, 3 mg mRNA/kg) | spleen concentration, fold less than for ALC-0315 ([2]; 24 hours, 3 mg mRNA/kg) [fold] | biodegradability ([2]; clearance data, at least at the initial step) | binding affinity to SIRPα, fold stronger than full-length CD47 protein [3] [fold]
CCCCCCCCC(CCCCCC)C(=O)OCCCCCCN(CCCCO)CCCCCCOC(=O)C(CCCCCC)CCCCCCCC (centres unmarked) [ALC-0315, [(4-Hydroxybutyl)azanediyl]di(hexane-6,1-diyl)bis(2-hexyldecanoate), reference compound] | still detected | remained almost unchanged throughout the 7 days | approximately 14 fold | ~11 | about 6 fold | – | – | – | – | – | – | – | –
CCCCCCCCC(=O)OCC(COC(=O)CCCCCCCC)CC(=O)OCCN(CCOC(=O)CC(COC(=O)CCCCCCCC)COC(=O)CCCCCCCC)C(=O)OCCN(C)C [CICL1] | returned to baseline | – | – | – | – | ≤ 2 | ≤ 1 | ≤ 2 | only very small amounts | approximately 127 fold | ~35 | much more biodegradable than ALC-0315 | –
NYTCEVTELSREGKTVIELK (SEQ ID NO: 3) [CD47 peptide] | – | – | – | – | – | – | – | – | – | – | – | – | 10
